Results taken from patent US12194027B2, “Small molecule inhibitors of GPCR GPR68 and related receptors for treating cancer, glioblastoma, and other indications” (UNIVERSITY OF MARYLAND, BALTIMORE, priority 2019, dated 2025).

Columns and labels:
WM115 cells = assay: agarose drop assay (3D model of melanoma extravasation); format: cell-based, human; conditions: 5 μM, 5 days
Description: WM115 cells were trypsinized and resuspended at 100,000 cells per mL in low melt agarose. A 10 μl drop of the cell mixture was added to 12-well plate. After solidifying Normal culture media was added with either DMSO 0.5% or OGM 5 μM. The area around the agarose drop was visualized manually with light microscopy. The cells were incubated for 5 days and visualized. Cells outside of the agarose drop were visualized and quantitated.
FIG. 8A is a schematic of the agarose drop assay. WM115 cells were mixed into a low melt agarose solution and single 10 μL drops were seeded onto cell culture plates. After solidifying, media containing OGM (5 μM) or CTL (DMSO […]) was added and wells were observed 5 days later. Immediately after media addition no cells are on the plate outside of the agarose gel in CTL or OGM. Five days after seeding cells are observed outside of the gel (Black arrows) in CTL but not in OGM. […] Quantification on the number of cells that escaped from an average of 5 gel drop replicates. FIG. 8B through FIG. 8F show the cells after media addition. No cells are on the plate outside of the agarose gel in CTL or OGM. Five days after seeding, cells are observed outside of the gel (arrows) in CTL but not in OGM.

zebrafish embryo [1] = assay: foxD3 in situ hybridization of neural crest progenitors; conditions: in vivo
Description: In situ hybridization was performed as previously described (Westerfield, 2000). Zebrafish foxD3 probes were synthesized as previously described (Stewart et al., 2006).
To identify if neural crest progenitors were perturbed by OGM, foxD3 staining was performed. This identified no difference. […] The views on the right show a magnification of the indicated area, with arrows showing positive staining along the dorsal ridge of the embryo.

158 GPCRs = assay: Millipore GPCR profiling, agonist and antagonist activity; format: cell-based; conditions: 10 μM
MeWo melanoma cell line = assay: scratch assay for migration, MeWo; format: cell-based, human; conditions: OGM 5 μM, EIPA 10 μM, 20 hours
Description: (§1) Cells were grown to confluence and the cells were denuded with a P200 tip. A medium change was done to add fresh medium, remove loose cells and add compounds OGM (5 μM) and EIPA (10 μM). The area of the scratch was observed 20 hours later.
(§2) Since there are numerous parallels are found between neural crest cells and cancer during migration, we examined whether OGM could inhibit the migration of cells in human melanoma cell lines (Oppitz et al., 2007; Schriek et al., 2005; Sinnberg et al., 2018). […] A2058, MeWo and WM115 cells were grown to confluence and a stripe of cells were denuded with a p200 pipette tip “scratch” and rinsed with PBS. Cells were treated with OGM or EIPA, or DMSO and incubated in low serum media. Imaging was done at 30 minutes after “scratch” and then 20 hours afterwards. Areas were then measured and normalized to the initial area.
(§3) Previous studies with the MV3 melanoma cell line have shown that disruption of proton efflux with EIPA inhibition of NHE1 can also reduce melanoma motility (Ludwig et al., 2013; Schneider et al., 2009; Stock et al., 2007, 2005; Stüwe et al., 2007). […] Although the expression of GPR68 and other proton-sensing receptors have been characterized in various skin cancers (Merkel cell carcinoma, dermatofibrosarcoma protuberans, atypical fibroxanthoma, and pleomorphic dermal sarcoma), expression in melanoma cell lines has not investigated (Nassios et al., 2019).

U87 cells = assay: clonogenicity of U87 cells (crystal violet); format: cell-based; conditions: 0.1-2 uM, 12 days
Description: U87 cells were plated at 400 cells per well in a 6-well plate and on the next day were treated with increasing concentrations of OGM2 for 12 days. The doses were 0 uM (DMSO control) 0.1 μM 0.5 uM, 1 uM, 1.5 uM and 2 uM, as labelled. The plate was fixed with formalin and stained with crystal violet.

[2] = tested on: U138 glioblastoma cell line; assay: 3D tumor spheroid growth, U138; format: cell-based; conditions: U138, 5 days of treatment
Description: (§4) Tumor spheroid cultures are a more physiological model of tumor growth than typical 2D cell culture. Temozolomide sensitive U87 (FIG. 18A) and Temozolomide insensitive U138 (FIG. 18B) glioblastoma cell lines were plated in low attachment round bottom 96-well plates and allowed to form tumor spheroids for 3 days (T0). At T0, spheroids were imaged using Lionheart™ (HCS) High-Content Imaging Systems (Biotek™) and then were exposed to increasing doses of either Temozolomide or OGM2. After 5 days of treatment the spheroids were imaged again (T5). The size (area) of the spheroids after 5 days of treatment was quantified, and the average size of the spheroids at T0 is depicted in red.

A2058 melanoma cell line = assay: scratch assay for migration, A2058; format: cell-based, human; conditions: OGM 5 μM, EIPA 10 μM, 20 hours
Description: as §1, §2, §3

[3] = tested on: U138 glioblastoma cell line; assay: 2D cell viability (cell titer blue), U138; format: cell-based; conditions: U138, 72 hours
Description: (§5) Temozolomide is the standard of care for glioblastoma but only works on 30% of patients. Temozolomide sensitive U87 (FIG. 17A) and Temozolomide insensitive U138 (FIG. 17B) glioblastoma cell lines were plated in 96-well plates and exposed to increasing doses of either Temozolomide or OGM2. The viability of cells was assayed using cell titer blue after 72 hours, and data was normalized to DMSO vehicle control. See results in FIG. 17.

[4] = tested on: U87 glioblastoma cell line; assay: 2D cell viability (cell titer blue), U87; format: cell-based; conditions: U87, 72 hours
Description: as §5

WM115 melanoma cell line = assay: scratch assay for migration, WM115; format: cell-based, human; conditions: OGM 5 μM, EIPA 10 μM, 20 hours
Description: as §1, §2, §3

336X-GFP = 336X-GFP (Homo sapiens (Human), UniProt Q15743); assay: SRE-luciferase assay, 336X-GFP truncation variant transfected HEK293T; format: cell-based; conditions: 10 μM
Description: (§6) 12-well plates of cells were transfected with 1 μg DNA using Lipofectamine 3000 with sre:luciferase and either GFP, GPR68-GFP or 336X-GFP. After 3 days, these cells were then lysed, and cell extracts were subjected to Steady-Glo luciferase assay (Promega™) according to the manufacturer's instructions. The results were normalized to cell titer, as determined using Cell Titer-Glo luminescence assay (Promega™).
A deletion between amino acid 336 and the beginning of GFP was generated from the MCSV:GPR68-GFP plasmid using the Q5 mutagenesis kit (NEB).
(§7) Loss of internalization can indicate loss of activity or loss of the ability to internalize through beta-arrestin. […] Compared to GFP controls, GPR68-GFP and 336X-GFP transfected cells had higher levels of activity. (n=3 biological replicates done in triplicate). Furthermore, the activity of the truncation variant was still inhibited by OGM. […]

GPR68-GFP = GPR68-GFP (Homo sapiens (Human), UniProt Q15743); assay: SRE-luciferase assay, GPR68-GFP transfected HEK293T; format: cell-based; conditions: 10 μM
Description: as §6, §7

[5] = tested on: U87 glioblastoma cell line; assay: 3D tumor spheroid growth, U87; format: cell-based; conditions: U87, 5 days of treatment
Description: as §4

zebrafish embryo [6] = assay: zebrafish embryo phenotype (pigmentation, morphology); format: in vivo

Sequence of GPR68-GFP (Q15743 whole entry): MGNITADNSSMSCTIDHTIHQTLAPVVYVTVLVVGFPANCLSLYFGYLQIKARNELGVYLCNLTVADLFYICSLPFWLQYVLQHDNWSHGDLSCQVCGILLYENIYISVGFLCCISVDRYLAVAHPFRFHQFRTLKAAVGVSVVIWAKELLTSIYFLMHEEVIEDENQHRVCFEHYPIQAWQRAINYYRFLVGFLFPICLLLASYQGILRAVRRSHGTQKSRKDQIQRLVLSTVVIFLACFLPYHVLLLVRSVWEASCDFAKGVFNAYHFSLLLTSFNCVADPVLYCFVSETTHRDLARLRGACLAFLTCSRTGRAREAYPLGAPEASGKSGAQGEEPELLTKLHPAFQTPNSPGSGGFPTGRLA
Sequence of 336X-GFP (Q15743 1-335): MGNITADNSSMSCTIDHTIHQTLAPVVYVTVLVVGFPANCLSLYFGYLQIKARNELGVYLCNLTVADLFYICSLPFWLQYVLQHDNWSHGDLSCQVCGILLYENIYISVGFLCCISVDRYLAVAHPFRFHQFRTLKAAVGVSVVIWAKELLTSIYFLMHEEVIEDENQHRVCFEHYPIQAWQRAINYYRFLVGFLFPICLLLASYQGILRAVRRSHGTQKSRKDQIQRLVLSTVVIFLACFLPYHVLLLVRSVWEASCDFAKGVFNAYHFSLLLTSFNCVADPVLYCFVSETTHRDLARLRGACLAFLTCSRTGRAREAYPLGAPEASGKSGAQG

Compound: CCc1ccc2c(c1)C1(NN=C(c3cccc4ccccc34)S1)C(=O)N2 (stereo not drawn) [OGM, 5-ethyl-5′-naphthalen-1-ylspiro[1H-indole-3,2′-3H-1,3,4-thiadiazole]-2-one]
- migration out of agarose drop (WM115 cells): migrated significantly less
- foxD3 staining of neural crest progenitors (zebrafish embryo [1]): no difference
- agonist and antagonist activity against 158 GPCRs (158 GPCRs): Only GPR68, LPA1 and GPR14 (UT2R) showed significant activity
- migration in scratch assay (MeWo melanoma cell line): inhibited migration
- clonogenicity (U87 cells): Reduces Clonogenicity
- spheroid size versus Temozolomide [2]: more effective than Temozolomide
- migration in scratch assay (A2058 melanoma cell line): inhibited migration
- viability versus Temozolomide [3]: more effective than Temozolomide
- viability versus Temozolomide [4]: more effective than Temozolomide
- migration in scratch assay (WM115 melanoma cell line): inhibited migration
- SRE-luciferase activity (336X-GFP): reduced the level of luciferase activity
- SRE-luciferase activity (GPR68-GFP): reduced the level of luciferase activity
- spheroid size versus Temozolomide [5]: more effective than Temozolomide
- induced morphological phenotype (zebrafish embryo [6]; OGM 10 uM, 48 hours pf): induced ventral curvature, wavy notochord, shortened body axis, craniofacial defects, and loss of retinal iridophores
- time window of pigmentation defect (zebrafish embryo [6]; temporal phenotypic analysis, treatment windows 0-36 hours pf): dependent on treatment during the 12 hours pf-18 hours pf time window
